Laboratory results published in the NIST ThermoML archive (doi:10.1016/j.jct.2010.11.003).
“And” between values parts separate entries of the source, which are not always exact repeats. Equal values may be shown once.

Experiment: mn = molality of the nth substance listed, in mol/kg
Settings: 101 kPa, Liquid; for mass density: Vibrating tube method; for viscosity: Capillary tube (Ostwald / Ubbelohde) method; for speed of sound: Sing-around technique in a fixed-path interferometer

O=C([O-])CC(O)(CC(=O)[O-])C(=O)[O-].[K+].[K+].[K+] [potassium citrate] + O
Settings	mass density, 303.15 K [kg/m3]	mass density, 308.15 K [kg/m3]	mass density, 313.15 K [kg/m3]	speed of sound, 308.15 K [m/s]	speed of sound, 313.15 K	viscosity, 308.15 K [mPa·s]	viscosity, 313.15 K [mPa·s]
m1 = 0.0472	–	1003.5	1001.66	1529	1538.1 m/s	0.739	0.665
m1 = 0.0566	–	1005.36	1003.51	1530.8	1539.8 m/s	0.741	0.668
m1 = 0.066	1008.87	1007.2	1005.35	1532.5	1541.4 m/s	0.744	0.672
m1 = 0.0754	1010.72	1009.04	1007.18	1534.2	1543 m/s	0.749	0.675
m1 = 0.0849	1012.58	1010.89	1009.03	1535.9	1544.7 m/s	0.754	0.68
m1 = 0.0943	1014.42	1012.72	1010.86	1537.6	1546.4 m/s	0.76	0.684
m1 = 0.2984	1052.39	1050.43	1048.42	1572.8	1580.5 m/s	0.861	0.783
m1 = 0.3971	1069.63	1067.62	1065.62	1589	1596.5 m/s	0.916	0.832
m1 = 0.4955	1086.25	1084.2	1082.12	1605.1	1612 m/s	0.975	0.887
m1 = 0.5936	1102.31	1100.17	1098.03	1620.8	1627.4 m/s	1.036	0.94
m1 = 0.7877	1132.65	1130.41	1128.2	1651.3	1657.5 m/s	1.168	1.063
m1 = 0.9823	1161.02	1158.81	1156.41	1681	1686.1 m/s	1.316	1.196
m1 = 1.175	1187.66	1185.33	1182.97	1704	1709.4 m/s and 1714 m/s	1.486	1.351
m1 = 1.366	1212.46	1210.05	1207.69	1731.7	1736.3 m/s and 1740.3 m/s	1.671	1.516
m1 = 1.555	1235.64	1233.31	1230.6	1757.9	1762.1 m/s and 1765.2 m/s	1.875	1.697
m1 = 1.837	1267.94	1265.24	1262.83	1794.7	1797.6 m/s and 1800.3 m/s	2.231	2.013
